The values below come from US11149057B2, “Neuroactive steroids, compositions, and uses thereof” (Sage Therapeutics, Inc., priority 2014, dated 2021).

The target of one assay is T1, α1β2γ2 GABAA receptors (Homo sapiens, UniProt P14867+P47870).
T1 construct: expressed in transfected cells
The assay is described as follows: Patch clamp electrophysiology (QPatch) of recombinant α1β2γ2 GABAA receptors in LTK cells. The format is cell-based. As to conditions: 10 μM test article, GABA EC20 = 2 μM, read-out: GABA (α1β2γ2) Qpatch in Ltk, % efficacy at 10 μM. (In general: Patch clamp records ionic current or voltage across a cell membrane.)

The target of a further assay is T2, α4β3δ GABAA receptors (Homo sapiens, UniProt P28472+P48169).
T2 construct: expressed in transfected cells; host or cells: CHO cells (transient transfection, Lipofectamine)
The assay is described as follows: Manual patch clamp electrophysiology of recombinant α4β3δ GABAA receptors in CHO cells. Type of assay: cell-based. As to conditions: 10 μM test article, GABA EC20 = 2 μM, read-out: GABA (α4β3δ) Manual patch in CHO, % efficacy at 10 μM.

The target in assay [1] is [35S]-TBPS binding, rat brain cortical membranes. The assay is described as follows: Steroid inhibition of [35S]-TBPS binding. As to conditions: 3 nM [35S]-TBPS, in the presence of 5 μM GABA. On the procedure:
[35S]-Butylbicyclophosphorothionate (TBPS) binding assays using rat brain cortical membranes in the presence of 5 μM GABA has been described (Gee et al, J. Pharmacol. Exp. Ther. 1987, 241, 346-353; Hawkinson et al, Mol. Pharmacol. 1994, 46, 977-985; Lewin, A. H et al., Mol. Pharmacol. 1989, 35, 189-194).
Briefly, cortices are rapidly removed following decapitation of carbon dioxide-anesthetized Sprague-Dawley rats (200-250 g). The cortices are homogenized in 10 volumes of ice-cold 0.32 M sucrose using a glass/teflon homogenizer and centrifuged at 1500×g for 10 min at 4° C. The resultant supernatants are centrifuged at 10,000×g for 20 min at 4° C. to obtain the P2 pellets. The P2 pellets are resuspended in 200 mM NaCl/50 mM Na—K phosphate pH 7.4 buffer and centrifuged at 10,000×g for 10 min at 4° C. This washing procedure is repeated twice and the pellets are resuspended in 10 volumes of buffer. Aliquots (100 μL) of the membrane suspensions are incubated with 3 nM [^35S]-TBPS and 5 μL aliquots of test drug dissolved in dimethyl sulfoxide (DMSO) (final 0.5%) in the presence of 5 μM GABA. The incubation is brought to a final volume of 1.0 mL with buffer. Nonspecific binding is determined in the presence of 2 μM unlabeled TBPS and ranged from 15 to 25%. […] Filter bound radioactivity is measured by liquid scintillation spectrometry. […]

A value given as a limit tells only on which side of the number the result lay.

T2 sequence (P48169 36-554): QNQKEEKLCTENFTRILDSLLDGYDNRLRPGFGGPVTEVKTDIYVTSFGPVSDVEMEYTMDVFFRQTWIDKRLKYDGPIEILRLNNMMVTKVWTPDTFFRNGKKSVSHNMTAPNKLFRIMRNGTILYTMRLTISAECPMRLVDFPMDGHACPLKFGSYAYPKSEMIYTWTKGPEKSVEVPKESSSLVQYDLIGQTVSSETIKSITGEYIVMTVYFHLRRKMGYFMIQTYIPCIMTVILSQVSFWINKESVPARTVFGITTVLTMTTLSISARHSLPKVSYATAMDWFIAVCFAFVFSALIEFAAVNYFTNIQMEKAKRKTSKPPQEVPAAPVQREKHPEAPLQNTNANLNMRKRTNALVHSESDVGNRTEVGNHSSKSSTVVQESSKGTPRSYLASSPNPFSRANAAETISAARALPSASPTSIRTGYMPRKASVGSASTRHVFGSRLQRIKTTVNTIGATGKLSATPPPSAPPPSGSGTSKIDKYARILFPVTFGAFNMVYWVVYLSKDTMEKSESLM
T2 sequence (P28472 26-473): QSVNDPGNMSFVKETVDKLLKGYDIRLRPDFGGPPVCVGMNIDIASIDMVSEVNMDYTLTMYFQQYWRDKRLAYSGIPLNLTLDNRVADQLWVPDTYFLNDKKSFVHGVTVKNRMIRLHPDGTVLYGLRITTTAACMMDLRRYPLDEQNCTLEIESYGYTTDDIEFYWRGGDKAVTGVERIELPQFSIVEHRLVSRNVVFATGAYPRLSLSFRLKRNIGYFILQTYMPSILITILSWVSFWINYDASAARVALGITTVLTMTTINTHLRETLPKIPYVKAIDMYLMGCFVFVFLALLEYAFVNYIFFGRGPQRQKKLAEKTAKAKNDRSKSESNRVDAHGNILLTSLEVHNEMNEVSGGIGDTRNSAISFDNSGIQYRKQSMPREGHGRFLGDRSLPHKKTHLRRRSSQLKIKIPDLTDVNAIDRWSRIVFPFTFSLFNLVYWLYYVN
T2 sequence (O14764 17-452 partner limits assumed): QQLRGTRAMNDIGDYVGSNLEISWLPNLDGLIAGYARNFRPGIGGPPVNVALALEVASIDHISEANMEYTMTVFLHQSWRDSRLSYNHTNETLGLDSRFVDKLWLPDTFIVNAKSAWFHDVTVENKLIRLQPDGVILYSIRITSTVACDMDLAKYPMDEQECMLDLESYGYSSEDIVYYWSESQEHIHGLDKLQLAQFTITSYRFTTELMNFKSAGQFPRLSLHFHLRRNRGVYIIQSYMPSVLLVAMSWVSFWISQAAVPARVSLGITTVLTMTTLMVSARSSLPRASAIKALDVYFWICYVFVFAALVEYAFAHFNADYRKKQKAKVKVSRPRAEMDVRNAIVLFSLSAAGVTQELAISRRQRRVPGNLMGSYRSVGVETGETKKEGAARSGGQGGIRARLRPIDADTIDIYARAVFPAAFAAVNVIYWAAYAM
T1 sequence (P14867 28-456): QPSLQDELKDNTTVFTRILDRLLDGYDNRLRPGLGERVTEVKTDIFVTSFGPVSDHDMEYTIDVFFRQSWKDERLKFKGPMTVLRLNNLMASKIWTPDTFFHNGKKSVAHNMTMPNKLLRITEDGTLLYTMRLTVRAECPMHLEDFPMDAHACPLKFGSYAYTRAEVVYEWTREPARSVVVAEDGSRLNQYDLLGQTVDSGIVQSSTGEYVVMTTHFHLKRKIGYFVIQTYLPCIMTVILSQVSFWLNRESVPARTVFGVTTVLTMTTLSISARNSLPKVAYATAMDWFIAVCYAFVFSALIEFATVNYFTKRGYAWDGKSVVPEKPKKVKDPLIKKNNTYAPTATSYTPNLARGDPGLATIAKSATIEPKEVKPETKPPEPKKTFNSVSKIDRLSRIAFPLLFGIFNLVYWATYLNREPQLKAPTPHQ
T1 sequence (P47870 25-512 limits assumed): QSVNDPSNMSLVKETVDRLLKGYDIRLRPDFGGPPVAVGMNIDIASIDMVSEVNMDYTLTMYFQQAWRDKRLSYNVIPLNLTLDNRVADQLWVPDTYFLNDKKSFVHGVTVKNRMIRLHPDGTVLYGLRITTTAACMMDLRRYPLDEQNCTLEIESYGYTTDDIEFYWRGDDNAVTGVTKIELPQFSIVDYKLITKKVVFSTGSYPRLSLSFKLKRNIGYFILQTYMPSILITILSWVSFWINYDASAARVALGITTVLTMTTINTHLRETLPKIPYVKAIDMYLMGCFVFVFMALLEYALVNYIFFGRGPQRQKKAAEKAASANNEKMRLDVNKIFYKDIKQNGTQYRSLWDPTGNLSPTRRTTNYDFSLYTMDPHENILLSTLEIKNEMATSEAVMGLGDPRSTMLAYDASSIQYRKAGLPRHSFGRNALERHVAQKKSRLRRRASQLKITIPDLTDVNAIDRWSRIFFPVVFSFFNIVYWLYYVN
T1 sequence (P18507 40-475 partner): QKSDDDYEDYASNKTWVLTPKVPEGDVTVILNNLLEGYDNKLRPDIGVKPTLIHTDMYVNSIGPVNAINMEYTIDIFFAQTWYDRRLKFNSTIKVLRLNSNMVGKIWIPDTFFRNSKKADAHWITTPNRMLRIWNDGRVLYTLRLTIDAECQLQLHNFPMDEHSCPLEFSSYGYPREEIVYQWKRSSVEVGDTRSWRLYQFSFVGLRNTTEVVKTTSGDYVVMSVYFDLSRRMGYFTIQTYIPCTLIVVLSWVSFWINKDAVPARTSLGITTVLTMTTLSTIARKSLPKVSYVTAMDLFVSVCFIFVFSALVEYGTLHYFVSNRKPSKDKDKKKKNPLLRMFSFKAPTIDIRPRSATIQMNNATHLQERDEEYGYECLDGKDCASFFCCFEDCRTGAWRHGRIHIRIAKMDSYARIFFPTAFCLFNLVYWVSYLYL

As for `CC(=O)[C@H]1CC[C@H]2[C@@H]3CC[C@@H]4C[C@](C)(O)CC[C@]4(COC(C)C)[C@H]3CC[C@]12C` [Compound 5], the Emax at 10 µM at α1β2γ2 GABAA receptors and on α4β3δ GABAA receptors was more than 500% in each case. Moreover, the IC50 in assay [1] is less than 10 nM.

As usually defined, the IC50 is the point on the concentration scale where inhibition reaches its midpoint.
